Measurements taken from patent US20250213700A1, “COMPOUNDS, COMPOSITIONS, AND METHODS FOR CELL-SPECIFIC PHARMACOLOGY” (Duke University, priority 2022, published 2025).

System: endogenous GABAAR
Experiment: all-optical assay of GABAAR positive allosteric modulation in primary neuronal culture
Format: cell-based, rat
Details: not given
Protocol: (§1) Cultured neuronal assays: Preparation of hippocampal cultures: Mixed glial and neuronal cultures were prepared from the hippocampus of postnatal day 0 to 1 Sprague-Dawley rat pups. Separate pools of dissociated cells were transfected via electroporation (LONZA, V4SP-3096) with plasmid constructs, and depending on assay directives, either plated individually or mixed with a different pool of electroporated cells after a 10 min recovery period. Cells were cultured on coverslips (Deckglaser) pre-treated with high molecular weight poly-D-lysine (Sigma, P7405; 0.05 mg/mL) in 24-well plates and maintained in NbActiv4 (BrainBits, Nb4-500) at 37 C, 5% CO2. Media was changed by half at DIV3 or 4 and then weekly thereafter; experiments were performed between DIV16 to DIV18.
Diazepam/Flumazenil: Dissociated neurons were electroporated with constructs and cultured for 2 weeks. The assay was performed in a modified GABAR-BASE, with an increased KCl concentration to enhance neuronal excitability and a lowered GABA level for a baseline. Again, a DRUG plate and three DoseGroups were used as described above for dosing, but no final WASH. […] Imaging alignment, proof-reading and analysis were performed in a similar fashion to the GABAR assay using MatLab.
Next it was sought to extend DART to allosteric modulators. The allosteric binding site of the GABAAR, known to bind several drugs, with effects ranging from negative to positive allosteric modulation was first analyzed. Diazepam represents the prototypic PAM at this site, and is the most clinically significant of the class. Thus, a diazepam analog was synthesized with a short alkyne attached to the amide of the diazepam core; an attachment site known to tolerate substituents and thought from structural inspection of the GABAAR-bound diazepam pose to allow linker access to free solution. Click chemistry was used to assemble the full-length diazepam.1DART.2 and leveraged an all-optical assay of endogenous GABAARs in primary neuronal culture, with ChR2 and GCaMP6s in the same cell.

CCOC(=O)c1ncn2c1CN(C)C(=O)c1cc(F)ccc1-2 [flumazenil, reference compound] was tested, and the GABAAR receptor modulation was “no receptor modulation”.

Same assay, conditions: traditional (non-DART) version

For CN1C(=O)CN=C(c2ccccc2)c2cc(Cl)ccc21 [diazepam, reference compound], the “effect on +HTP vs ddHTP cells” value was “equally affected”.

System: endogenous GABAARs
Experiment: all-optical assay of GABAAR antagonism in primary neuronal culture
Format: cell-based, rat
Details: ddHTP vs +HTP cells, 15 min, 15 uM GABA
Protocol: as §1
Gabazine: Dissociated neurons were electroporated with constructs and cultured for 2 weeks. The assay was performed in the same BASE solution as described above, but with the addition of synaptic blockers CPP (NMDAR antagonist; Tocris) and NBQX (AMPAR antagonist; Abcam, ab120046) to isolate GABAR activity, and a small amount of GABA (GABAR agonist; Sigma) to ensure GABAR activity (=GABAR-BASE). […] Instead, a high dose of regular gabazine was used to completely silence any cells that may not have had realized full antagonism by the end of the assay. Imaging alignment, proof-reading and analysis were performed in a similar fashion to the AMPAR assay using MatLab.
It was next focused on blocking the GABAAR, a ubiquitous transducer of synaptic inhibition. […] The structure-activity literature of gabazine, a selective GABAAR antagonist, was explored. The core gabazine pharmacophore includes of a 3-amino, 6-phenoxy-pyridazine ring, with GABA embedded in the 2-position (2 butyric acid). Based on historical, low-potency predecessors of gabazine, a longer GABA moiety (2 pentanoic acid), and methyl substituents (e.g., 5-CH3) were explored (FIG. 2F). For each variant, the 6-phenoxy moiety was modified to make a gabazinealkyne module, which was click-conjugated to DART.2. Several variants were made, including gabazine.1^DART.2 (2 butyric acid, 5-H), gabazine.5DART.2 (2 pentanoic acid, 5-H), and gabazine.7DART.2 (2 pentanoic acid, 5-CH3). An all-optical assay of endogenous GABAARs in primary neuronal culture was then developed. […] Excitatory synapses were blocked, such that opto-stimulation with ChR2 became the only source of neural excitation.

In the case of COc1cc(CCCCl)ccc1CCOCCNC(=O)c1ccc(CNC(=O)CCOCCOCCOCCOCCOCCOCCOCCOCCOCCOCCOCCOCCOCCOCCOCCOCCOCCOCCOCCOCCOCCOCCOCCOCCOCCOCCOCCOCCOCCOCCOCCOCCOCCOCCOCCOCCn2cc(COCCOCCOCCOCCOCCOCCOCCCCCCOc3ccc(-c4ccc(=N)n(CCCCC(=O)O)n4)cc3)nn2)cc1 [gabazine.5^DART.2], the “DW (t=15 m)” value was 1,500.

Biological target: T1, HaloTag Protein (HTP) on +HTP neurons (Rhodococcus rhodochrous, UniProt P0A3G2, A155T/A167V/A172T/A224E/C128F/C176G/D78G/E160K/E257K/H272N/K175M/K195N/L47V/L88M/N227D/S58T/T264A/Y273L/Y87F)
T1 construct: SSnlg signal peptide (residues 1-49 of mouse neuroligin-1) (N); ERXL (Kir2.1 trafficking and ER export signals); expressed in transfected cells; host or cells: primary rat hippocampal neurons, electroporated with plasmid
Experiment: biotin-HTL capture dose-response on +HTP cultured neurons
Format: cell-based, rat
Details: EC 50 (nM), concentration for half-maximal capture on +HTP neurons following 15 minutes of incubation
Protocol: as §1
For any given neuronal assay, coverslips were first washed briefly in a resting BASE solution containing (in mM): 4 KCl, 2 CaCl2), 2 MgCl2, 150 NaCl, 10 HEPES, 10 glucose, pH 7.4, before transfer to a glass-bottom, 24-well imaging plate (Cellvis, P24-1.5H—N). Live cell imaging was performed on an Olympus IX83 inverted fluorescent microscope (10× objective, […].) with LED illumination for GFP (Excitation=485 nm), TR (Ex=560 nm), Cy5/Alexa647 (Ex=640 nm) and Cy7/AlexaFluor750 (Cy7=740 nm) depending on the specific assay directives.
biotin-HTL: Dissociated neurons were electroporated with either the +HTP or ddHTP construct and cultured as described above. A dilution series for both the biotin-PEG12-HTL.1 and biotin-PEG12-HTL.2 compounds was made in BASE solution containing 1% BSA (Sigma A7904), representing 12 final concentrations (in uM) between 10 and 0.001. After a brief rinse in BASE+BSA to acclimate the live neurons to room temperature and avoid temperature effects to the binding kinetics, a single coverslip was incubated in one of the twelve dilutions for 15 min, washed twice in BASE+BSA, then incubated in a 1:500 dilution of Streptavidin-AlexaFluor488 (Invitrogen) for 15 min. The neurons were rinsed four times then transferred to a glass-bottom imaging plate containing BASE+BSA. Each coverslip was imaged in its entirety by combining several 10× images (TR at 10 ms; GFP at 100 ms) together using the Olympus CellSens software stitching algorithm. A dose-response curve was created from the individual coverslips using MatLab.
To enable direct quantification of capture efficiency, commercially available HTL (i.e., HTL.1) were conjugated to biotin via a flexible polyethylene glycol linker of moderate length (PEG12), to mimic the longer (PEG36) linker typically used in an RxDART. Capture kinetics were characterized on cultured neurons expressing HTP on their surface [HTPNLG(432-648), as in, to model the cellular microenvironment of interest. Dose-response curves were performed by incubating neuronal coverslips with a given ligand for 15 min, followed by washing, fluorescent labeling of biotin, and quantification of capture. […] Thus, it was reasoned that improving HTL50 would widen the DW for any Rx cargo.

T1 sequence (P0A3G2 other isoform, or with tags, fused parts or gaps with the stated changes): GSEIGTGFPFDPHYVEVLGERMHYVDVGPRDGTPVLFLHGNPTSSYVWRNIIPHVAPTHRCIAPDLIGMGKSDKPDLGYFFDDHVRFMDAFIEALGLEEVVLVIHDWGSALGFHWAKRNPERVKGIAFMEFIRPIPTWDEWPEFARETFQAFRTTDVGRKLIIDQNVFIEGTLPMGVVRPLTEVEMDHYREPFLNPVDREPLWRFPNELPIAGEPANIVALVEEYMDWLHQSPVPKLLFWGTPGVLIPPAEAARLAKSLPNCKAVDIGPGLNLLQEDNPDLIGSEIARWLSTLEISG

Nc1cc(CCCCCl)ccc1OCCCCNC(=O)c1ccc(CNC(=O)CCOCCOCCOCCOCCOCCOCCOCCOCCOCCOCCOCCOCCNC(=O)CCCC[C@H]2SC[C@H]3NC(=O)N[C@H]32)cc1 and O=C(CCCC[C@@H]1SC[C@@H]2NC(=O)N[C@@H]21)NCCOCCOCCOCCOCCOCCOCCOCCOCCOCCOCCOCCOCCC(=O)NCc1ccc(C(=O)NCCCCOc2ccc(CCCCCl)cc2Cl)cc1 are within 1.5-fold of each other in EC50: 70 nM for the first, 100 nM for the second.

Going from O=C(CCCC[C@H]1SC[C@H]2NC(=O)N[C@H]21)NCCOCCOCCOCCOCCOCCOCCOCCOCCOCCOCCOCCOCCC(=O)NCc1ccc(C(=O)NCCCCOc2ccc(CCCCCl)cc2)cc1 to O=C(CCCC[C@H]1SC[C@H]2NC(=O)N[C@H]21)NCCOCCOCCOCCOCCOCCOCCOCCOCCOCCOCCOCCOCCC(=O)NCc1ccc(C(=O)NCCCCOc2ccc(CCCCCl)cc2F)cc1, the EC50 falls from 110 nM to 45 nM (2.4-fold).

CCOc1cc(CCCCCl)ccc1OCCCCNC(=O)c1ccc(CNC(=O)CCOCCOCCOCCOCCOCCOCCOCCOCCOCCOCCOCCOCCNC(=O)CCCC[C@@H]2SC[C@@H]3NC(=O)N[C@@H]32)cc1 and COc1cc(CCCCl)ccc1OCCCCNC(=O)c1ccc(CNC(=O)CCOCCOCCOCCOCCOCCOCCOCCOCCOCCOCCOCCOCCNC(=O)CCCC[C@@H]2SC[C@@H]3NC(=O)N[C@@H]32)cc1 are within 1.5-fold of each other in EC50: 70 nM for the first, 50 nM for the second.

First: O=C(CCCC[C@@H]1SC[C@@H]2NC(=O)N[C@@H]21)NCCOCCOCCOCCOCCOCCOCCOCCOCCOCCOCCOCCOCCC(=O)NCCOCCOCCCCCCCl
Second: O=C(CCCC[C@@H]1SC[C@@H]2NC(=O)N[C@@H]21)NCCOCCOCCOCCOCCOCCOCCOCCOCCOCCOCCOCCOCCC(=O)NCc1ccc(C(=O)NCCOCCOCCCCCCCl)cc1
The EC50 of the first is 6.7-fold higher: 1000 nM for the first, 150 nM for the second.

First: COc1cc(CCCCl)ccc1C(=O)NCCCNC(=O)c1ccc(CNC(=O)CCOCCOCCOCCOCCOCCOCCOCCOCCOCCOCCOCCOCCNC(=O)CCCC[C@@H]2SC[C@@H]3NC(=O)N[C@@H]32)cc1 [drawing 135]
Second: COc1cc(CCCCl)ccc1CC(=O)NCCNC(=O)c1ccc(CNC(=O)CCOCCOCCOCCOCCOCCOCCOCCOCCOCCOCCOCCOCCNC(=O)CCCC[C@@H]2SC[C@@H]3NC(=O)N[C@@H]32)cc1
The EC50 of the first is 100-fold lower: 200 nM for the first, 20000 nM for the second. The first is the more potent here.

Going from COc1cc(/C=C/CCCl)ccc1CCOCCNC(=O)c1ccc(CNC(=O)CCOCCOCCOCCOCCOCCOCCOCCOCCOCCOCCOCCOCCNC(=O)CCCC[C@@H]2SC[C@@H]3NC(=O)N[C@@H]32)cc1 to COc1cc(CCCCl)ccc1CCOCCNC(=O)c1ccc(CNC(=O)CCOCCOCCOCCOCCOCCOCCOCCOCCOCCOCCOCCOCCNC(=O)CCCC[C@@H]2SC[C@@H]3NC(=O)N[C@@H]32)cc1, the EC50 falls from 20 nM to 10 nM (2-fold).

COc1cc(CCCCI)ccc1OCCCCNC(=O)c1ccc(CNC(=O)CCOCCOCCOCCOCCOCCOCCOCCOCCOCCOCCOCCOCCNC(=O)CCCC[C@@H]2SC[C@@H]3NC(=O)N[C@@H]32)cc1 and COc1cc(CCCCBr)ccc1OCCCCNC(=O)c1ccc(CNC(=O)CCOCCOCCOCCOCCOCCOCCOCCOCCOCCOCCOCCOCCNC(=O)CCCC[C@@H]2SC[C@@H]3NC(=O)N[C@@H]32)cc1 are the same in EC50: 30 nM for the first, 30 nM for the second.

First: COc1cc(CCCCCl)ccc1CCOCCNC(=O)c1ccc(CNC(=O)CCOCCOCCOCCOCCOCCOCCOCCOCCOCCOCCOCCOCCNC(=O)CCCC[C@@H]2SC[C@@H]3NC(=O)N[C@@H]32)cc1
Second: COc1cc(CCCCCCl)ccc1CCOCCNC(=O)c1ccc(CNC(=O)CCOCCOCCOCCOCCOCCOCCOCCOCCOCCOCCOCCOCCNC(=O)CCCC[C@@H]2SC[C@@H]3NC(=O)N[C@@H]32)cc1
The EC50 of the first is 130-fold lower: 30 nM for the first, 4000 nM for the second.

Going from COc1cc(CCCCl)ccc1C(=O)NCCCNC(=O)c1ccc(CNC(=O)CCOCCOCCOCCOCCOCCOCCOCCOCCOCCOCCOCCOCCNC(=O)CCCC[C@@H]2SC[C@@H]3NC(=O)N[C@@H]32)cc1 [drawing 133] to O=C(CCCC[C@@H]1SC[C@@H]2NC(=O)N[C@@H]21)NCCOCCOCCOCCOCCOCCOCCOCCOCCOCCOCCOCCOCCC(=O)NCc1ccc(C(=O)NCCCCOc2ccc(CCCCCl)cc2O)cc1, the EC50 falls from 200 nM to 30 nM (6.7-fold).

Compared with COc1c(/C=C\CCCl)cccc1OCCCCNC(=O)c1ccc(CNC(=O)CCOCCOCCOCCOCCOCCOCCOCCOCCOCCOCCOCCOCCNC(=O)CCCC[C@@H]2SC[C@@H]3NC(=O)N[C@@H]32)cc1, COc1cc(CCCCl)ccc1C(=O)NCCCNC(=O)c1ccc(CNC(=O)CCOCCOCCOCCOCCOCCOCCOCCOCCOCCOCCOCCOCCNC(=O)CCCC[C@@H]2SC[C@@H]3NC(=O)N[C@@H]32)cc1 [drawing 134] is 5.1-fold higher in EC50: 55 nM for the first, 280 nM for the second.

For O=C(CCCC[C@@H]1SC[C@@H]2NC(=O)N[C@@H]21)NCCOCCOCCOCCOCCOCCOCCOCCOCCOCCOCCOCCOCCC(=O)NCc1ccc(C(=O)NCCCCOc2ccc(CCCCCl)cc2OC(F)(F)F)cc1, the EC50 was 1500 nM.
